These results are taken from patent publication US10611759B2, “Glutaminase inhibitors” (Rhizen Pharmaceuticals SA, priority 2014, dated 2020).

One test addresses T1, Glutaminase(Brain) (Mus musculus, UniProt D3Z7P3).
T1 sequence (D3Z7P3 55-674): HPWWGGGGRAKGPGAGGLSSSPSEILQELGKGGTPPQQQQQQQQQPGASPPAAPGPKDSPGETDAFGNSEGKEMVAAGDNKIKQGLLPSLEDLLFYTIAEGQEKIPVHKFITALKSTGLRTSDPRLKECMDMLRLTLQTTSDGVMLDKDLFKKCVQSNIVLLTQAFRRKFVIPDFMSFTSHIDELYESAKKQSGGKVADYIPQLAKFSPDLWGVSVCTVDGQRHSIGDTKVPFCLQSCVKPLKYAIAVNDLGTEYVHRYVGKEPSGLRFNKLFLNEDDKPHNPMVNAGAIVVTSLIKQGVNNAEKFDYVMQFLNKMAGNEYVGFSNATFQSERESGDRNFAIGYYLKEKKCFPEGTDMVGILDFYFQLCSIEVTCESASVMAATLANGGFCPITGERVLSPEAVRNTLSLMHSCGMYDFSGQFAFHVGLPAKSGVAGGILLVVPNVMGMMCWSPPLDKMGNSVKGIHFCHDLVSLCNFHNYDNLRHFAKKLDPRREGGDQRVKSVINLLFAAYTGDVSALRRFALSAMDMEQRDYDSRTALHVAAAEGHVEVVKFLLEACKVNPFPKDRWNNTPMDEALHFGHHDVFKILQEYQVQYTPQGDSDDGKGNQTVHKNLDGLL
Kind of test: Glutaminase enzyme activity using glutaminase enzyme from mice brain/kidney homogenate (Nessler's reagent, ammonia). It is filed as biochemical. The protocol:
Assay 3: Determination of Glutaminase Enzyme Activity Using Glutaminase Enzyme from Mice Brain/Kidney
Step 1: Preparation of Tissue Homogenates:
Male Balb/c mice were administered 0.28 M ammonium chloride in drinking water for 7 days. The animals were sacrificed and brain/kidney organs collected on dry ice. […] The tissue was homogenized and supernatants were stored at −80° C. until the enzyme assay was performed.
Aim: Compounds were assessed for their ability to inhibit the enzymatic activity of L-glutaminase present in mice brain/kidney homogenate.
Protocol: The assay was performed using a colorimetric method using Nessler's Reagent by quantifying the amount of ammonia formed as a by product during the enzymatic conversion of L-glutamine to glutamate. In the routine assay, 16 μl of tissue homogenate is added to 33 μl of Tris-Hcl phosphate buffer (pH 8) along with 1 μl of DMSO/test compound containing the desired final concentration and vortexed briefly. 50 μl of 20 mM L-glutamine Tris buffer is added to start the reaction and incubated for 15 minutes at 37° C. The ammonia formed is detected by adding 20 μl of reaction mixture to cold water in a 96 well plate followed by 20 μl of Nessler's reagent. The colour developed is measured at 450 nm. Data Analysis: Activity of the test compound is reported as % inhibition and the data is analyzed using Graphpad Prism (Graphpad software; San Diego Calif.) for IC50 determination.

The next test relates to A549. Kind of test: In vitro cell proliferation assay (MTT), A549. The format is cell-based. Particulars: Homo sapiens, 72 hours. The protocol:
(§1) Assay 4: In Vitro Cell Proliferation Assay in Cancer Cell Lines
(§2) Growth inhibition assays were carried out using 10% FBS supplemented media. Cells were seeded at a concentration of 5000-20,000 cells/well in a 96-well plate. Test compounds at a concentration range from 0.01 to 10000 nM were added after 24 hours. Growth was assessed using the 3-[4,5-dimethylthiazol-2-yl]-2,5-diphenyltetrazolium bromide (MTT) dye reduction test at 0 h (prior to the addition of the test compound) and 72 hours after the addition of test compound. Absorbance was read on a Fluostar Optima (BMG Labtech, Germany) at a wave length of 450 nm. Data were analysed using GraphPad Prism and percent inhibition due to the test compound compared to the control was calculated accordingly.

Another test relates to HCT116. Kind of test: In vitro cell proliferation assay (MTT), HCT116. The format is cell-based. Particulars: Homo sapiens, HCT-116, 72 hours. The protocol:
as §1, §2

Another test relates to Daudi. Kind of test: In vitro cell proliferation assay (MTT), Daudi. The format is cell-based. Particulars: Homo sapiens, 72 hours. As to the method: as §1, §2
The subject of a further test is Rajii. The experiment in a line: In vitro cell proliferation assay (MTT), Rajii. The format is cell-based. Particulars: 72 hours. As to the method:
as §1, §2

The inhibition is the relative decrease from the control value, in per cent. One may read the GI50 as the concentration at which growth is held to half of that of the control. Read a low GI50 as greater sensitivity of the cells. `O=C(Cc1cccc(OC(F)(F)F)c1)Nc1ccc(N2CCC(c3nnc(NC(=O)Cc4ccccn4)s3)CC2)nn1` [Example-8, 2-(pyridin-2-yl)-N-(5-(1-(6-(2-(3-(trifluoromethoxy)phenyl)acetamido)pyridazin-3-yl)piperidin-4-yl)-1,3,4-thiadiazol-2-yl)acetamide]: on Glutaminase(Brain) (read-out: Glutaminase(Brain) activity % inhibition 0.1 μM), the inhibition at 0.1 µM lay in the range of 75 to 100%. For the same compound, the inhibition at 1 µM at Glutaminase(Brain) (read-out: Glutaminase(Brain) activity % inhibition @1 μM) is 75 to 100%. The GI50 in the test on A549 was 100 to 250 nM; with HCT116, 250 to 500 nM; in the test with Daudi it was less than 100 nM; in the test with Rajii it was less than 100 nM.
